Experimental data from patent publication US8071099B2, “Anti-FLT3 antibodies” (ImClone, LLC, priority 2008, dated 2011).

Legend:
SEM-K2 cells = assay: Combination therapy with EB10 and MTX in SEM-K2 Leukemia Model; type: in vivo, NOD/SCID mice; conditions: EB10 10 mg/kg i.p. 2×/week; MTX 100 mg/kg Q7D; combination of both
Method: One day prior to the start of treatment, i.v. inject 65, 7 weeks old, male NOD/SCID mice with 5×10^5 SEM-K2 cells suspended in PBS in a total volume of 200 μl. Drop from the study mice receiving less than 90% of cells intravenously.
Prepare MTX (Sigma Chemical, Cat # M9929) in USP Saline at a concentration of 10 mg/ml and dose Q7D for three cycles. […] Dose all mice at 10 ml/kg i.p. In the combination group, dose MTX at least one hour before EB 10 treatment starting on day 1. Record mouse survival daily. Follow the mice for survival, and sacrifice any mouse displaying signs of morbidity/mortality; mark as dead on the day of sacrifice. End the study on day 168 and sacrifice any mice surviving to that point. Compare survival in the treatment groups by Log Rank Test between treatment groups.

[1] = test system: FLT3-negative JM1 or BaF3-control cell lines; assay: Flow cytometric analysis, FLT3-negative cell lines; type: binding
Human Leukemia Cells = assay: Bone Marrow Engraftment of Human Leukemia Cells; type: in vivo, mice; conditions: 500 μg/dose, versus control-IgG treated group
Method: Bone Marrow Engraftment of Human Leukemia Cells: Harvest bone marrow from the femurs of EB10-treated mice (500 μg/dose) and the control-IgG treated group at day 20. Analyze cells for human CD45 by flow cytometry at 6 and 14 weeks post leukemia cell injection for the degree of tumor cell infiltration of bone marrow. Compare the degree of tumor cell infiltration of bone marrow using immunohistochemical staining with a fluorescence-labeled anti-human CD45 antibody.

BaF3-ITD cells = assay: Cell proliferation assay ([3H]-thymidine), FL-independent, BaF3-ITD; type: cell-based
Method: Harvest EOL-1 cells and wash three times using serum-free RPMI 1640 medium. Culture cells in serum-free RPMI 1640 medium for 12 hours. For BaF3-ITD cells, perform the proliferation assay in RPMI 1640 medium supplemented with 10% FCS in the absence of exogenous FL. Reconstitute cells in serum-free AIM-V medium, plate in triplicates in a flat-bottomed 96-well plate (1×104/100 μl/well) and incubate with varying concentrations of antibodies (from 0 to 100 nM) and 30 ng/ml of FL at 37° C. for 68 hours. As a background control, incubate cells with medium alone in the absence of exogenous FL. Pulse cells with 0.25 μCi/well of [^3H]-thymidine for 4 hours. Harvest cells and measure cpm in a PerkinElmer Wallace-1205 Betaplate Liquid Scintillation Counter (Wellesley, Mass.). Calculate the percent inhibition of FL-induced proliferation for EOL-1 cells; deduce the cpm of background proliferation (i.e., cell samples not stimulated with FL) from the cpm of all experimental samples. Calculate percent inhibition using the following formula: [(cpm of untreated sample—cpm of antibody-treated sample)/cpm of untreated sample]×100%.

EOL-1 leukemia cells = assay: EOL-1 Xenograft Human AML Leukemia Model; type: in vivo, NOD-SCID mice; conditions: 10 μg

Compound | mouse survival (SEM-K2 cells) | binding by flow cytometric analysis ([1]; BaF3-control cell line) | binding by flow cytometric analysis ([1]; FLT3-negative JM1 cell line) | number of tumor cells in bone marrow (human CD45) (Human Leukemia Cells) | % Inhibition of FL-independent proliferation (Mean ± Standard deviation) (BaF3-ITD cells; 6 nM) [%] | % Inhibition of FL-independent proliferation (Mean ± Standard deviation) (BaF3-ITD cells; 13 nM) [%] | % Inhibition of FL-independent proliferation (Mean ± Standard deviation) (BaF3-ITD cells; 25 nM) [%] | % Inhibition of FL-independent proliferation (Mean ± Standard deviation) (BaF3-ITD cells; 50 nM) [%] | % Inhibition of FL-independent proliferation (Mean ± Standard deviation) (BaF3-ITD cells; 100 nM) [%] | effect on survival (EOL-1 leukemia cells)
CN(Cc1cnc2nc(N)nc(N)c2n1)c1ccc(C(=O)N[C@@H](CCC(=O)O)C(=O)O)cc1 [MTX, methotrexate, reference compound] | also prolonged survival |  |  |  |  |  |  |  |  | 
EB10: recombinant human monoclonal antibody, full length IgG1κ targeting human FLT3; heavy chain SEQ ID NO:25, light chain SEQ ID NO:28 | significantly prolonged mouse survival | No binding | No binding | decreased significantly | 9.6 ± 3.1 | 13.0 ± 4.0 | 23.3 ± 0.6 | 28.6 ± 3.1 | 29.2 ± 3.0 | No effect
